Measurements from a melting point compilation (Tetko et al.; mined from patent text by program, amines drawn as free bases though some values may be those of a salt).

Structure (SMILES) | melting point
O=C(O)c1cc(S(=O)(=O)NCCc2ccccc2Cl)ccc1Cl | 175 to 177 °C
O=c1c(CCc2cccnc2)cc2cccnc2n1-c1cccc([N+](=O)[O-])c1 | 221 to 223 °C
O=C1c2cccc(OC(F)=C(F)F)c2C(=O)N1c1ccc(OC(F)=C(F)F)cc1 | 172 °C
CC(=O)Nc1ccc2c(c1)S(=O)(=O)N(CCCCN1CCN(c3ncccn3)CC1)C2=O | 162 °C
O=C(O)CS(=O)(=O)c1ccc2c(-c3ccc(Cl)cc3)noc2c1Cl | 212 to 213 °C
CCOC(=O)CC1(c2ccccc2OCC)C(=O)Nc2ccc(Cl)cc21 (centres undefined) | 181 °C
CC1=CCC(=C2C(=O)C3(CS(=O)(=O)O)CCC2C3(C)C)C=C1 (centres undefined) | 220 °C
O=C(O)CC1CCCc2c1n(Cc1ccc(Cl)cc1Cl)c1c(F)cc(F)cc21 (centres undefined) | 160 to 161 °C
N#Cc1c(-c2ccc(Cl)c(Cl)c2)cc(C2CC2)nc1Cl | 158 to 160 °C
COc1ccc(OC)c2c1C[C@@H](O)[C@H](N1CCN(c3cccc(C(F)(F)F)c3)CC1)C2 (relative stereo) | 184 to 187 °C
COc1ccc(C(C)(CC(C)C)C(=O)NC2CCCCCCCCCCNC2=O)c(S)c1 (centres undefined) | 131 to 136 °C
CC(=O)OCCCCn1c(=O)sc2c(=O)[nH]c(N)nc21 | 189 to 190 °C
COC(=O)c1ccc(I)cc1S(N)(=O)=O | 176 to 177 °C
Cc1nn(CC(F)(F)F)c(-c2ccc(F)cc2)c1-c1ccc2c(c1)NC(=O)CO2 | 174 °C
Cc1c(Cc2ccc([N+](=O)[O-])cc2)c(=O)oc2cc(OCC#N)cc(OCC#N)c12 | 178 to 185 °C
CCCCCCCCCCCCC1C=CC(Oc2ccc(C(=O)O)o2)=C2N=C3CCCCC3=C21 (centres undefined) | 110 to 112 °C
CC(C)(C)OC(=O)N1CCN(Cc2ccc(NC(=O)Oc3ccccc3)c(C(F)(F)F)c2)CC1 | 143 to 147 °C
O=C1C=C(O[C@@H]2c3cc(C(F)(F)C(F)(F)F)ccc3OC(CF)(CF)[C@H]2O)CC1 (relative stereo) | 165 to 167 °C
O=C(NC1CCN(C(=O)CCCC2(C(=O)NCC(F)(F)F)c3ccccc3-c3ccccc32)CC1)c1ccccc1Oc1ccccc1 | 96 to 98 °C
Cc1c(-c2cc(Cl)cc(Cl)c2)ccc2nc(N)nc(N)c12 | > 250 °C
O=C1CCC(N2Cc3c(OCc4ccc(F)c(F)c4)cccc3C2=O)C(=O)N1 (centres undefined) | 228 to 230 °C
CS(=O)(=O)c1ccc(-c2cc(C(F)(F)F)nn2-c2ccc(OC(F)(F)F)cc2)cc1F | 110 to 112 °C
CCOC(=O)N1CCN(C2Cc3ccccc3Sc3cc(Cl)c(Cl)cc32)CC1 (centres undefined) | 184 to 186 °C

Structure (SMILES) | melting point
Cc1nc2c(NCc3c(C)cccc3C)cc(C(=O)N(C)C)cc2[nH]1 | 203 °C
COc1ccccc1C(=O)c1c(SC)oc2ccccc2c1=O | 145 °C
O=S(=O)(c1ccc(Cl)cc1)C(c1cc(F)ccc1F)C1CCCCC1 (centres undefined) | 107 to 109 °C
CCCN(CCC)c1nc2c(N3CCSCC3)nccc2c(=O)[nH]1 | 226 °C
O=c1[nH]c2ncc(-c3ccc(CO)cc3)nc2n1CC1CCCCC1 | 275 to 277 °C
CCCN(CCC)C(=O)CCn1c(-c2ccc(Cl)cc2)nc2cccnc21 | 104 to 106 °C
CCCC1=C(C(=O)OCC)C(c2ccccc2OC(C)C)c2c[nH]nc2N1 (centres undefined) | 210 °C
CC(C)c1ccc(S(=O)(=O)n2c(Cc3ccc(C(=O)O)cc3)cc3cc(Cl)ccc32)cc1 | 192 °C
CCCC(=O)Nc1c(C(=O)c2cccc(Cl)c2)[nH]c2cc(Cl)ccc12 | 157 to 158 °C
O=C1c2nccnc2C(=O)N1c1ccc(Cl)cn1 | 165 °C
O=C(N[C@H](Cc1ccc(C(F)(F)F)cc1)[C@H](O)c1ccc(F)cc1)c1ccc(C(F)(F)F)cc1 (racemic) | 162 to 163 °C
COc1cc(Cl)cc(C(=O)C(F)(F)F)c1N | 124 to 126 °C
Cn1nc(N)c(C(N)=O)c1N | 213 to 215 °C
N#Cc1ccc(-c2n[nH]cc2C(F)(F)F)cc1SCC(F)(F)F | 90 to 91 °C
O=C1NC(=O)C(Cc2ccc(C(=O)COc3ccccc3)cc2)S1 (centres undefined) | 170 to 174 °C
Cn1c(C(=O)N2CCC[C@@H]3CCCC[C@H]32)cc2ccccc21 (relative stereo) | 87 to 90 °C
CCCC1CC(=O)Nc2c1cnn2CC (centres undefined) | 108 to 110 °C
COc1ccc2ccc3c(c2c1)C=C(C#N)CO3 | 134 °C
O=CC=C(c1ccccc1)c1ccccc1 | 45 to 46.5 °C
O=S(=O)(c1ccc2ccc(Br)cc2c1)N(Cc1ccccc1)Cc1ccccc1 | 127 to 129 °C
CCCCN1CCN(c2nc(C)c(C(=O)NCc3cccnc3)s2)C1=O | 109 to 111 °C
O=C(Nc1ccc(F)cc1F)c1nccnc1Oc1cccc(C(F)(F)F)c1 | 107 to 109 °C
O=c1[nH]c2ccc(Cl)cc2n1CCCl | 164 °C

Structure (SMILES) | melting point
CC(=O)Nc1ccc(Cl)c2c1CN(C)C2 | 147 to 150 °C
O=C(O)CCC(=O)c1ccc(-c2ccc(Cl)cc2)cc1 | 184 to 185 °C
O=C(CN1CCN(c2ccccc2)CC1)Nc1ccc2c(c1NC(=O)c1ccccc1)C(=O)c1ccccc1C2=O | 225 to 226 °C
COc1cc(-c2cc(C(F)(F)F)nn2-c2ccc(S(C)(=O)=O)c(F)c2)ccc1-c1cocn1 | 148 to 150 °C
Oc1ccc2c(c1)OCC(c1ccc(F)cc1)C2c1ccc(OCCN2CCCCC2)cc1 (centres undefined) | 146 to 147 °C
CC(C)(C)c1nc(C(O)CCC2CCNCC2)c2ccccc2n1 (centres undefined) | 110 °C
CCOC(=O)COc1cc2cc(C3CCCCC3)sc2c(Cl)c1Cl | 73 to 75 °C
Cc1ccc(SCc2c(C(C)C)nc(C(C)C)c(CO)c2-c2ccc(F)cc2)cc1 | 90 to 91 °C
CCCCc1nccc2ccc(C(=O)N[C@@H](Cc3cc(F)cc(F)c3)[C@H](O)CNCc3cccc(CC)c3)cc12 | 109 to 110 °C
CC(C)(C)OC(=O)NNC(=N)C(Cl)(Cl)Cl | 150 °C
CP1(=O)c2ccccc2CN1c1ccccc1 (centres undefined) | 94 to 97 °C
CCOC(=O)c1cc2c(cn1)[nH]c1ccc(C(C)O)cc12 (centres undefined) | 125 to 130 °C
C[C@@H](C(N)=O)c1ccc(NS(=O)(=O)Cc2ccccc2)cc1 | 68 to 70 °C
CCCCCCCCCCCCCCOc1ccc(CN(C(=O)NC)c2cccc(COC(=O)NC)c2)cc1 | 107 to 109 °C
CN1CCN(c2ccc(S(=O)(=O)Oc3ccc(Cl)cc3)cc2)C1=O | 165 to 168 °C
CCCC(=O)C1C(=O)CC(c2ccc(C)cc2)CC1=O (centres undefined) | 76 to 78 °C
O=C(c1cccnc1)N1CC2COc3ccc(Cl)cc3C2=N1 (centres undefined) | 165 to 166 °C
Clc1cccc2c1nnn2C1CCCCC1 | 141 to 144 °C
O=C(NN1CCOCC1)OCCOc1ccc(OCCOC(=O)NN2CCOCC2)cc1 | 219 to 221 °C
CC(C)c1cc(-c2ccc(F)c3ccccc23)nc(Nc2ccccc2)n1 | 85.7 to 86.3 °C
COCCOCc1c(CN(C)CC(O)c2ccc(C#N)s2)sc2c(=O)c(C(=O)NCc3ccc(Cl)cc3)cn(C)c12 (centres undefined) | 163 to 164 °C
CCCCCCC(=O)N[C@@H](C(=O)OCc1ccccc1)[C@@H](C)O | 70 to 73 °C
O=C(Cn1nc(-c2ccccc2O)nc1-c1ccccc1O)NCCOCCO | 173 to 174 °C
